Like-named read-outs stand apart in the source and are kept apart here.
Key:
HpMTAN = molecular target: T1, HpMTAN (Helicobacter pylori, UniProt Q9ZMY2); assay: Kinetics of HpMTAN with substrates, direct assay (absorbance at 274 nm); type: biochemical; settings: substrate of purified HpMTAN
T1 construct: His6 (N); made in house; host or cells: E. coli BL21 (DE3)
T1 sequence (Q9ZMY2 1-230): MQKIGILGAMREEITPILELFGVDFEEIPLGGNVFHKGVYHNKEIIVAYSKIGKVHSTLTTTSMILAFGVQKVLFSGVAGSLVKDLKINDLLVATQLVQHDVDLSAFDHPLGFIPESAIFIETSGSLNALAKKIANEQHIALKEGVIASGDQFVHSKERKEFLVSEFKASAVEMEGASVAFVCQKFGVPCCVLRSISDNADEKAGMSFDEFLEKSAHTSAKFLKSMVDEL
Protocol: (§1) Kinetics of HpMTAN were determined using a direct assay involving absorbance decrease at 274 nm continuously as a consequence of formation of free adenine from 5′-methylthioadenosine. The Ki and Ki* values of BuT-DADMe-ImmA (30) were determined using coupled assays, in which xanthine oxidase was used as the coupling enzyme and absorbance increase was followed at 292 nm as the product adenine is converted to 2,8-dihydroxyadenine. Both assays have been previously described
BuT-DADMe-ImmA (30) was previously characterized as a transition state analogue inhibitor of EcMTAN (FIG. 1C)^8. Here, inhibition assays were performed using BuT-DADMe-ImmA against recombinant HpMTAN with 5′-methylthioadenosine as substrate. Purified HpMTAN uses both 5′-methylthioadenosine and 6-amino-6-deoxyfutalosine as facile substrates. […] The low Kd value supports the proposal that BuT-DADMe-ImmA is a transition state analogue inhibitor for HpMTAN. […] The nitrogen of the hydroxypyrrolidine moiety has a pKa value of 9, and thus mimics the positive charge of a ribocation at the transition state. The methylene bridge extends the distance between the sugar and the purine base leaving group, as this distance is near 3 Å at the transition state. […]

H. pylori MTAN [1] = molecular target: T2, H. pylori MTAN (Helicobacter pylori, UniProt Q9ZMY2); assay: Ki determination: inhibition of recombinant HpMTAN, xanthine oxidase coupled assay, 5′-methylthioadenosine as substrate; type: biochemical
T2 construct: His6 (N); made in house; host or cells: E. coli BL21 (DE3)
T2 sequence (Q9ZMY2 1-230): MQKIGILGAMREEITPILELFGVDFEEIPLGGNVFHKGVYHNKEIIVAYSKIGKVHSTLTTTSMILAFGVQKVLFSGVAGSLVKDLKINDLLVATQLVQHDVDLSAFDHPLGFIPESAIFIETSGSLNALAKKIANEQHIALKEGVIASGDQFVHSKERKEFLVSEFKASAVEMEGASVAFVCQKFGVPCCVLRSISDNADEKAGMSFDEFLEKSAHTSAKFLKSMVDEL
Protocol: The purification procedure of HpMTAN was described previously^10. Briefly, BL21 (DE3) cells harboring a plasmid encoding HpMTAN with an N-terminal His6-tag were grown to an optical density of 0.7 measured at 595 nm and IPTG was introduced to a final concentration of 0.5 mM. After another 15 h at 22° C., cells were collected by centrifugation. The pellet was suspended and later disrupted by pressure cell and sonication. The soluble portion was applied to a Ni-NTA column and HpMTAN was eluted with an imidazole concentration gradient of 200 to 500 mM. The protein was desalted using a Superdex G15 gel-filtration column then equilibrated and concentrated in 10 mM Hepes, 30 mM KCl, pH 7.6. The purity was confirmed by SDS-PAGE.
as §1
(§2) BuT-DADMe-ImmA (30) was previously characterized as a transition state analogue inhibitor of EcMTAN (FIG. 1C)^8. Here, inhibition assays were performed using BuT-DADMe-ImmA against recombinant HpMTAN with 5′-methylthioadenosine as substrate. Purified HpMTAN uses both 5′-methylthioadenosine and 6-amino-6-deoxyfutalosine as facile substrates. […] The low Kd value supports the proposal that BuT-DADMe-ImmA is a transition state analogue inhibitor for HpMTAN. […] The nitrogen of the hydroxypyrrolidine moiety has a pKa value of 9, and thus mimics the positive charge of a ribocation at the transition state. The methylene bridge extends the distance between the sugar and the purine base leaving group, as this distance is near 3 Å at the transition state. The 9-deazaadenine alters conjugation in the purine ring, causing an elevated pKa and protonation of N7, resembling the N7-protonated adenine leaving group at the transition state.

H. pylori [2] = assay: H. pylori growth on tryptic soy agar with 5% horse blood (MIC); type: cell-based, Helicobacter pylori; settings: for MIC90: Helicobacter pylori
Protocol: (§3) H. pylori were grown for 72 hours under microaerophilic condition (5% O2, 10% CO2 and 85% N2) at 37° C. on tryptic soy agar with 5% horse blood. To determine the MIC values, the test substance was added to the gel solution right before pouring. To compare the zones of inhibition, specific antibiotics were added to the center of disc after spreading H. pylori, and then H. pylori was allowed to grow for 72 hours under microaerophilic condition at 37° C.
The effects of BuT-DADMe-ImmA (30) were tested on H. pylori growing on 5% horse blood agar. At 6 ng/ml, slight growth was detected and at 8 ng/ml, no growth was detected, therefore the MIC90 value for inhibition of H. pylori growth is <8 ng/ml (FIG. 3A).

H. pylori [3] = assay: Zone of inhibition (disc) on H. pylori; type: cell-based, Helicobacter pylori; settings: for zones of inhibition, comparison of antibiotics: equivalent amounts (10 ng or 20 ng per disc)
Protocol: FIG. 3A-3B: The effects of BuT-DADMe-ImmA (30) on H. pylori growth. A. The effects of increasing the concentration of BuT-DADMe-ImmA (ng/ml) on growth on blood agar. B. The inhibitory effects of BuT-DADMe-ImmA are compared with amoxicillin, metronidazole and tetracyclin in zone of inhibition studies. Drug concentrations were: 0 (top disc), 10 ng (middle disc) or 20 ng (bottom disc). Each specified antibiotic was applied to the disc in the same manner.
as §3
Commonly used antibiotics in H. pylori infections include amoxicillin, metronidazole and tetracycline. The anti-H. pylori effects of BuT-DADMe-ImmA (30) were compared to those antibiotics in common use. […] Thus, BuT-DADMe-ImmA is more efficient at inhibition of H. pylori growth than commonly used antibiotics.

K. pneumoniae = assay: Growth of K. pneumoniae on MacConkey agar; type: cell-based; settings: culture concentrations to 5 μg/ml, 24 hours
Protocol: (§4) At the desired concentration of the test substance BuT-DADMe-ImmA (30), K pneumoniae, S. flexneri and S. enterica were grown on MacConkey agar at 37° C. for 24 hours, and S. aureus and P. aeruginosa were grown on LB agar at 37° C. for 24 hours.
(§5) In most bacteria, MTANs are expressed and catalyze the hydrolysis of the N-ribosidic bonds of 5′-methylthioadenosine and S-adenosylhomocysteine. The two reactions are involved in bacterial quorum sensing, sulfur recycling via S-adenosylmethionine and polyamine synthesis^16; however, most bacterial MTANs are not essential for bacterial proliferation as judged by planktonic growth conditions. […] The effects BuT-DADMe-ImmA were also tested on the growth for additional clinically common pathogens, S. aureus, K pneumoniae, S. flexneri, S. enterica and P. aeruginosa. […] Because of the inhibitor specificity for this rare menaquinone pathway, treatment of H. pylori infections with BuT-DADMe-ImmA would be unlikely to generate antibiotic resistance in off-target bacterial species.

S. flexneri = assay: Growth of S. flexneri on MacConkey agar; type: cell-based; settings: culture concentrations to 5 μg/ml, 24 hours
Protocol: as §4, §5

S. enterica = assay: Growth of S. enterica on MacConkey agar; type: cell-based; settings: culture concentrations to 5 μg/ml, 24 hours
Protocol: as §4, §5

S. aureus = assay: Growth of S. aureus on LB agar; type: cell-based; settings: culture concentrations to 5 μg/ml, 24 hours
Protocol: as §4, §5

P. aeruginosa = assay: Growth of P. aeruginosa on LB agar; type: cell-based; settings: culture concentrations to 5 μg/ml, 24 hours
Protocol: as §4, §5

H. pylori MTAN [4] = molecular target: T2, H. pylori MTAN; settings: Table 3, cited from earlier work
E. coli = settings: reference 6; cited from earlier work
V. cholerae = settings: reference 6; cited from earlier work
MTAN [5] = molecular target: T3, MTAN (Escherichia coli, UniProt P0AF12); settings: reference 6; cited from earlier work
T3 construct: host or cells: E. coli cells
T3 sequence (P0AF12 whole entry): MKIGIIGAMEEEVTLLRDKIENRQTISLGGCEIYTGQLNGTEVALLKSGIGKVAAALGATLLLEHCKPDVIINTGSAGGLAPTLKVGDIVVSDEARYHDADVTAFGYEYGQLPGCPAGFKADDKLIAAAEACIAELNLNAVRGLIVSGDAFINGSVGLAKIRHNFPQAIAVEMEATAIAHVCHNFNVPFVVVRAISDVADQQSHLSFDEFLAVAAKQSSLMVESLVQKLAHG

MTAN [6] = molecular target: T4, MTAN (Vibrio cholerae serotype O1, UniProt Q9KPI8); settings: reference 6; cited from earlier work
T4 construct: host or cells: V. cholerae cells
T4 sequence (Q9KPI8 whole entry): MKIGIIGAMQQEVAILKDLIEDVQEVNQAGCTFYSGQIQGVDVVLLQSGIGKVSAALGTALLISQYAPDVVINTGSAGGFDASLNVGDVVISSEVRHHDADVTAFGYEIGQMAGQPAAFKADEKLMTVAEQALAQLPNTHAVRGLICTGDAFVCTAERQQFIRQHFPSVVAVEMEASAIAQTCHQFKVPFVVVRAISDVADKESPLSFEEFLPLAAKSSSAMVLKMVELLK

[7] = stated without a test; cited from earlier work
[8] = substrate: CC(O)[C@H]1O[C@@H](n2cnc3c(N)ncnc32)[C@H](S)[C@@H]1O; assay: Kinetics of HpMTAN with substrates, direct assay (absorbance at 274 nm); type: biochemical, Helicobacter pylori; settings: other: substrate of purified HpMTAN
Protocol: as §1, §2

Nc1ncnc2c1ncn2[C@@H]1O[C@H](CCC(=O)c2cccc(C(=O)O)c2)[C@@H](O)[C@H]1O [6-amino-6-deoxyfutalosine]
Km (HpMTAN): 0.8 ± 0.3 µM | kcat (HpMTAN; in 1/s): 4.3±0.9

CCCCSC[C@H]1CN(Cc2c[nH]c3c(N)ncnc23)C[C@@H]1O [Compound 30, (3R,4S)-4-(1-butylthiomethyl)-1-[(9-deaza-adenin-9-yl)-methyl]-3-hydroxypyrrolidine]
Ki (H. pylori MTAN [1]; 5′-methylthioadenosine as substrate, read-out: initial inhibition constant (Ki)): 0.8 nM | Km/Kd ratio (H. pylori MTAN [1]; Km 0.8 μM for 6-amino-6-deoxyfutalosine as substrate): 22,200 | Kd (H. pylori MTAN [1]; following slow-onset of inhibition, read-out: equilibrium dissociation constant (Ki*=Kd)): 0.036 nM | MIC90 (H. pylori [2]; 5% horse blood agar, read-out: MIC90 value for inhibition of H. pylori growth): < 8 ng/mL | MIC90 (H. pylori [2]; Table 3, agar plate, 72 hours, microaerophilic, read-out: Inhibition of H. pylori growth MIC90): 6 to 8 ng/mL | MIC90 (H. pylori [2]; corresponds to MIC90 of 8 ng/ml, read-out: MIC90 as chemical concentration): 0.023 µM | H. pylori growth (H. pylori [2]; at 6 ng/ml, 5% horse blood agar): slight growth | H. pylori growth (H. pylori [2]; at 8 ng/ml, 5% horse blood agar): no growth | zones of clearance (H. pylori [3]; 10 ng on disc): Small zones of clearance | zones of clearance (H. pylori [3]; 20 ng on disc): large zones | zones of inhibition, comparison of antibiotics (H. pylori [3]): greater than those for any of the other antibiotics | growth inhibition of K. pneumoniae (K. pneumoniae): no growth inhibition | growth inhibition of S. flexneri (S. flexneri): no growth inhibition | growth inhibition of S. enterica (S. enterica): no growth inhibition | growth inhibition of S. aureus (S. aureus): no growth inhibition | growth inhibition of P. aeruginosa (P. aeruginosa): no growth inhibition | Ki (H. pylori MTAN [4]; value from Reference 10, read-out: Inhibition of H. pylori MTAN Ki*): 0.036 ± 0.002 nM | Ki (H. pylori MTAN [4]; value marked (Reference 10), read-out: Inhibition of H. pylori MTAN Ki): 0.79 ± 0.04 nM | effect on growth of E. coli (E. coli): did not affect the growth | effect on growth of V. cholerae (V. cholerae): did not affect the growth | MTAN activity in E. coli (MTAN [5]): totally abolished | MTAN activity in V. cholerae (MTAN [6]): totally abolished | pKa value of the nitrogen of the hydroxypyrrolidine moiety [7]: 9

Cc1ncc([N+](=O)[O-])n1CCO [metronidazole, reference compound]
zones of inhibition, comparison of antibiotics (H. pylori [3]): no growth inhibition

B1: HpMTAN (Helicobacter pylori J99) (protein)
chain: MQKIGILGAMREEITPILELFGVDFEEIPLGGNVFHKGVYHNKEIIVAYSKIGKVHSTLTTTSMILAFGVQKVLFSGVAGSLVKDLKINDLLVATQLVQHDVDLSAFDHPLGFIPESAIFIETSGSLNALAKKIANEQHIALKEGVIASGDQFVHSKERKEFLVSEFKASAVEMEGASVAFVCQKFGVPCCVLRSISDNADEKAGMSFDEFLEKSAHTSAKFLKSMVDEL
notes: His6 (N); made in house; host or cells: E. coli BL21 (DE3)
Km [8]: 0.6 ± 0.3 µM | kcat [8]: 12.1 s⁻¹ | kcat/Km [8]: 2e+07 M⁻¹ s⁻¹
